# Source: ChEMBL document CHEMBL4325898, “Recent advances in the development of neuroprotective agents and therapeutic targets in the treatment of cerebral ischemia” (Eur J Med Chem, 2019)
# Test system: Felis catus
# Assay: Reduction in infarct volume in cat at 0.5 mg/kg administered as bolus dose at 15 mins before middle cerebral artery occlusion followed by infusion of 0.14 mg/kg/hr measured after 6 hrs
# Type: functional
# Design: scale not given: the % may be the effect or the level left
smiles,measurement,value
C[C@]12N[C@H](Cc3ccccc31)c1ccccc12.O=C(O)/C=C/C(=O)O,Activity,75%
